Tested on: 494315-158-R-J1-PDC complex spheroid growth, percent test/control
Experiment: Anticancer human tumor 494315-158-R-J1-PDC patient-derived soft tissue sarcoma cell line growth inhibition [Asc]
Conditions: for IC50: curve of first compound; for viability, T/C: stronger effect = lower value
Method: Multicellular complex tumor spheroid response to apoptosis pathway targeting inhibitors Alrizomadlin, Pelcitoclax, and Dasminapant in combination with a variety of drugs and investigational agents in selected tumor cell lines
The MDM2 inhibitor alrizomadlin, the Bcl-2/Bcl-xL inhibitor pelcitoclax, and the IAPs inhibitor dasminapant were evaluated both individually and in combination with standard of care and investigational anticancer small molecules within a complex spheroid model of solid tumors. . Complex spheroids include a stromal component modeled by human endothelial cells (HUVEC) and fibroblasts modeled by human mesenchymal stem cells (MSCs). The concentration ranges selected for each drug and investigational agent were based upon clinically achievable concentrations if the clinical Cmax of the agent was known.
Compounds. The drugs and investigational agents: alrizomadlin (APG-115; NSC831270), pelcitoclax (APG-1252; NSC835773), dasminapant (APG-1387;NSC834197), TAK-243 (NSC785004), copanlisib (NSC809693), olaparib (NSC753686), talazoparib (NSC767125), cobimetinib (NSC 768068), eltanexor (KPT-8602, NSC 794443), abemaciclib (NSC 768073), sotorasib (NSC818433), adagrasib (NSC 831453), MRTX-1133 (NSC 836407), Iadademestat (ORY1001, NSC 806812), and RMC-4630 (NSC839698), were obtained from the NCI Developmental Therapeutics Program Chemical Repository. The FDA-approved anticancer drug set is available from the Developmental Therapeutics Program at https://dtp.cancer.gov/organization/dscb/obtaining/available plates.htm. […] The stock solutions were prepared in dimethyl sulfoxide (DMSO, Sigma-Aldrich, St. Louis, MO, cat. D2650) at 800-fold the tested concentration and stored at -70 degrees C prior to their use. All drugs and investigational agents were tested over a range starting from a high concentration at or near the clinical Cmax and decreasing in half-log increments. If the clinical Cmax for an agent had not been determined, the highest concentration tested was 10 microM.
The patient-derived cancer (PDC) cell lines include five colon adenocarcinomas: 186277-243-T-J2-PDC, 616215-338-R-J1-PDC, 439559-082-T-J2-PDC, 463943-066-T-J2-PDC, and 519858-162-T-J1-PDC; three pancreatic carcinomas: 323965-272-R-J2-PDC, 521955-158-R6-J3-PDC, and 521955-158-R2-J5-PDC; two uterine sarcomas: 327498-152-R-J2-PDC and 993429-296-R-J1-PDC; two rhabdomyosarcomas: 755483-174-R-J1-PDC and 772245-204-R-J1-PDC; two soft tissue sarcomas: 126254-015-R-J1-PDC and 494315-158-R-J1-PDC; two malignant fibrous histiocytomas: 317291-083-R-J1-PDC and 596521-263-R-J1-PDC; two breast carcinomas: 171881-019-R-J1-PDC and 885512-296-R-J2-PDC; and one ovarian carcinoma: 6556581-035-R-J-PDC were obtained from the NCI PDMR, (https://pdmr.cancer.gov). The established cell lines HSSY-2 synovial sarcoma (RRID:CVCL 8719), SYO-1 synovial sarcoma (RRID:CVCL_7146), MPNST malignant peripheral neural sheath tumor were obtained from the Sloan Kettering Institute. The following established cell lines were purchased from the American Type Culture Collection (ATCC, Manassas, VA), Sor the received from the NCI repository:, PANC-1 pancreatic carcinoma (CRL-1469, RRID:CVCL_0480), OVCAR-5 ovarian carcinoma (RRID:CVCL_1628), OVCAR-8 ovarian carcinoma (RRID:CVCL_1629), , MCF-7 breast carcinoma (CRL-12584, RRID:CVCL_0031), MDA-MB-231 breast carcinoma (CRL-12532, RRID:CVCL_0062), NCI-H1876 small cell lung carcinoma (CRL-5902, RRID:CVCL_1503), NCI-H510A small cell lung carcinoma (HTB-184, RRID:CVCL_1565), NCI-H1417 (CRL-5869, RRID:CVCL_1469), and NCI-H196 small cell lung carcinoma (CRL-5823, RRID:CVCL_1509). Dr. Peter Houghton (Greehey Children's Cancer Research Institute, University of Texas Health Science Center, San Antonio, TX) provided Rh-18 rhabdomyosarcoma (RRID:CVCL_1659). Pooled donor human umbilical vein endothelial cells (HUVEC, Lonza, cat. CC-2519) and human mesenchymal stem cells (hMSC, Lonza, cat. PT-2501) were purchased from Lonza (Walkersville, MD).
Cell Culture. […]

[1] = second compound 0.03 µM, first compound 0.00316 µM
[2] = second compound 0.03 µM, first compound 0.01 µM
[3] = second compound 0.03 µM, first compound 0.0316 µM
[4] = second compound 0.03 µM, first compound 0.1 µM
[5] = second compound 0.0949 µM, first compound 0.00316 µM
[6] = second compound 0.0949 µM, first compound 0.01 µM
[7] = second compound 0.0949 µM, first compound 0.0316 µM
[8] = second compound 0.0949 µM, first compound 0.1 µM
[9] = second compound 0.3 µM, first compound 0.00316 µM
[10] = second compound 0.3 µM, first compound 0.01 µM
[11] = second compound 0.3 µM, first compound 0.0316 µM
[12] = second compound 0.3 µM, first compound 0.1 µM
[13] = second compound 0.949 µM, first compound 0.00316 µM
[14] = second compound 0.949 µM, first compound 0.01 µM
[15] = second compound 0.949 µM, first compound 0.0316 µM
[16] = second compound 0.949 µM, first compound 0.1 µM
[17] = second compound 3 µM, first compound 0.00316 µM
[18] = second compound 3 µM, first compound 0.01 µM
[19] = second compound 3 µM, first compound 0.0316 µM
[20] = second compound 3 µM, first compound 0.1 µM
[21] = second compound 0.03 µM, first compound 0.316 µM
[22] = second compound 0.03 µM, first compound 1 µM
[23] = second compound 0.0949 µM, first compound 0.316 µM
[24] = second compound 0.0949 µM, first compound 1 µM
[25] = second compound 0.3 µM, first compound 0.316 µM
[26] = second compound 0.3 µM, first compound 1 µM
[27] = second compound 0.949 µM, first compound 0.316 µM
[28] = second compound 0.949 µM, first compound 1 µM
[29] = second compound 3 µM, first compound 0.316 µM
[30] = second compound 3 µM, first compound 1 µM
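Also: compound exposure lasted seven days after spheroids formed for three days.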

Row | Compound | IC50 (second compound 0.03 µM) [µM] | IC50 (second compound 0.0949 µM) [µM] | IC50 (second compound 0.3 µM) [µM] | IC50 (second compound 0.949 µM) [µM] | IC50 (second compound 3 µM) [µM] | viability, T/C [1] [%] | viability, T/C [2] [%] | viability, T/C [3] [%] | viability, T/C [4] [%] | viability, T/C [5] [%] | viability, T/C [6] [%] | viability, T/C [7] [%] | viability, T/C [8] [%] | viability, T/C [9] [%] | viability, T/C [11] [%] | viability, T/C [12] [%] | viability, T/C [15] [%] | viability, T/C [16] [%] | viability, T/C [19] [%] | viability, T/C [20] [%] | further results
1 | Cn1ncnc1[C@H]1c2n[nH]c(=O)c3cc(F)cc(c23)N[C@@H]1c1ccc(F)cc1 + CCN1C(C(=O)NC23CCC(C(=O)O)(CC2)CC3)C(c2cccc(Cl)c2F)C2(C(=O)Nc3cc(Cl)ccc32)C12CCCCC2 | > 0.1 | > 0.1 | > 0.1 | > 0.1 | > 0.1 | 86.8 | 78.9 | 76.3 | 57 | 87.1 | 66.3 | 64.6 | 58.2 | 75.5 | 62.9 | 76.3 | 73.5 | 72.1 | 54.7 | 74.2 | viability, T/C (second compound 0.03 µM, first compound 0.000316 µM): 104%; viability, T/C (second compound 0.03 µM, first compound 0.001 µM): 101%; viability, T/C (second compound 0.0949 µM, first compound 0.000316 µM): 108%; viability, T/C (second compound 0.0949 µM, first compound 0.001 µM): 93.4%; viability, T/C (second compound 0.3 µM, first compound 0.000316 µM): 81.8%; viability, T/C (second compound 0.3 µM, first compound 0.001 µM): 94.3%; viability, T/C [10]: 76.2%; viability, T/C (second compound 0.949 µM, first compound 0.000316 µM): 95.3%; viability, T/C (second compound 0.949 µM, first compound 0.001 µM): 80.1%; viability, T/C [13]: 78.4%; viability, T/C [14]: 64%; viability, T/C (second compound 3 µM, first compound 0.000316 µM): 105%; viability, T/C (second compound 3 µM, first compound 0.001 µM): 92.3%; viability, T/C [17]: 67.9%; viability, T/C [18]: 70.9%
2 | O=C(c1cc(Cc2n[nH]c(=O)c3ccccc23)ccc1F)N1CCN(C(=O)C2CC2)CC1 + CCN1C(C(=O)NC23CCC(C(=O)O)(CC2)CC3)C(c2cccc(Cl)c2F)C2(C(=O)Nc3cc(Cl)ccc32)C12CCCCC2 | > 10 | > 10 | > 10 | > 10 | > 10 |  |  | 97.3 | 109 |  |  | 107 | 107 |  | 97.6 | 103 | 109 | 90.2 | 90.3 | 83.9 | viability, T/C [21]: 94%; viability, T/C [22]: 94.6%; viability, T/C (second compound 0.03 µM, first compound 3.16 µM): 80.4%; viability, T/C (second compound 0.03 µM, first compound 10 µM): 51.2%; viability, T/C [23]: 96.8%; viability, T/C [24]: 93.8%; viability, T/C (second compound 0.0949 µM, first compound 3.16 µM): 74.3%; viability, T/C (second compound 0.0949 µM, first compound 10 µM): 50.4%; viability, T/C [25]: 95.2%; viability, T/C [26]: 79.1%; viability, T/C (second compound 0.3 µM, first compound 3.16 µM): 74.5%; viability, T/C (second compound 0.3 µM, first compound 10 µM): 53%; viability, T/C [27]: 92.5%; viability, T/C [28]: 95.9%; viability, T/C (second compound 0.949 µM, first compound 3.16 µM): 73.9%; viability, T/C (second compound 0.949 µM, first compound 10 µM): 52%; viability, T/C [29]: 85%; viability, T/C [30]: 91.9%; viability, T/C (second compound 3 µM, first compound 3.16 µM): 81.9%; viability, T/C (second compound 3 µM, first compound 10 µM): 51%
3 | O=C(c1ccc(F)c(F)c1Nc1ccc(I)cc1F)N1CC(O)([C@@H]2CCCCN2)C1 + CCN1C(C(=O)NC23CCC(C(=O)O)(CC2)CC3)C(c2cccc(Cl)c2F)C2(C(=O)Nc3cc(Cl)ccc32)C12CCCCC2 | > 1 | > 1 | > 1 | > 1 | 0.795 | 110 | 116 | 121 | 115 | 98 | 90.5 | 110 | 99.2 | 98.9 | 120 | 111 | 137 | 127 | 101 | 112 | viability, T/C [21]: 95.7%; viability, T/C [22]: 61.7%; viability, T/C [23]: 96.6%; viability, T/C [24]: 58.4%; viability, T/C [10]: 114%; viability, T/C [25]: 87.8%; viability, T/C [26]: 51.2%; viability, T/C [13]: 88.4%; viability, T/C [14]: 93.7%; viability, T/C [27]: 97.7%; viability, T/C [28]: 61.3%; viability, T/C [17]: 98.2%; viability, T/C [18]: 102%; viability, T/C [29]: 84.5%; viability, T/C [30]: 41.4%

Source: PubChem BioAssay AID1963420 (Molecular Pharmacology Branch, DTP, NCI, 2024)
